Laboratory results published in patent US20110207166A1, “Human bone marrow microenvironments and uses thereof” (priority 2009, published 2011).
“Also recorded” adds a separate entry of the source.

Assays:
CXCR4 = CXCR4 (Homo sapiens, UniProt P61073); conditions: AML; reference [42]; cited from earlier work
MSC niche = assay: In vitro mesenchymal stem cell niche (cobblestone area) formation, phase contrast imaging; format: cell-based, human; conditions: SDF-1/CXCL12 10 ng/ml, AMD3100 10 μM
Experimental: Fresh human BM samples were obtained from orthopedic surgery after informed consent (Tissue Donor Program of the Feinstein Institute). The buffy coat containing the mononucleated cells (MNC) was isolated by Ficoll-density gradient separation (Stem Cell Technology, Vancouver). MNC were plated at low density in 6-well plates in Alpha-Mem (Lonza), 20% heat-inactivated fetal bovine serum (Hyclone), 5 mM L-Glutamine and 100 Units/ml Peni/Strep (Stem Cell Technologies) for overnight adherence. After 24-48 hours, the non-adherent cell fraction was discharged by rigorous pipetting. At day 5, single-cell derived mesenchymal colonies were processed for immunohistochemistry (Vectastain ABC kit, Vector Laboratories, Burlingame, Calif.). MSC were stained for CD90/Thy-1 (Mouse anti-human mAb, Clone 5E10, BD Pharmingen), CD105 (Mouse anti-human mAb, clone 266, BD Pharmingen), CD146 (Mouse monoclonal [P1H12] Abcam). Cells were also labeled for flow cytometry with CD34-APC (Miltenyi Biotec), CD105-FITC (R&D), CD45-FITC, CD90-PECy5, CD146-PE and CXCR4-PE (BD Pharmingen) including matching isotype controls.
Polyurethane scaffold test discs (10×1.5 mm—Biomerix) were placed inside a cloning cylinder (Millipore Corporation, MA), one cylinder in each well of a 24-well plate (Falcon, BD). […]

[1] = tested on: AML cells in MSC-coated scaffolds; assay: In vivo mesenchymal leukemic niche in MSC-coated scaffolds implanted subcutaneously in NOD/SCID mice, CD45 immunohistochemistry; conditions: 4 weeks; in situ injection twice per week; SDF-1/CXCL12 10 ng/ml; AMD3100 10 μM; human CD45 stain
Experimental: Polyurethane scaffolds (10×1.5 mm—Biomerix), coated in vitro with human BM-derived MSC (day 5-7), were implanted in a subcutaneous pocket on the dorsum of non-irradiated NOD/SCID mice (Jackson laboratory) according to an approved IACUC animal protocol. Empty scaffolds (without MSC seeding) were used as negative controls. CD34+ HSC (1×10^5—Stem Cell Technology, Vancouver) or primary AML cells (1×10^7—cryopreserved and thawed) were injected either in situ or retro-orbital in the mice and analyzed for engraftment. The mice were treated twice per week with in situ injections of SDF-1/CXCL12 (10 ng/ml), AMD3100 (10 μM) or PBS (control). At week 1, week 4 and week 8, mice were sacrificed and the scaffolds, femurs and spleens were processed and evaluated for cell survival in the mesenchymal niche by immunohistochemistry.
Harvested scaffolds were fixed in formalin solution 10%, neutral buffered (HistoPak-StatLab Medical Products-TX) and paraffin embedded and cut on slides. […]
Each experiment was performed in duplicate, with two mice per experiment in each treatment arm and one mouse as a negative control. Multiple slides per scaffold were analyzed for imaging by immunohistochemistry and light microscopy. […]

Sequence of CXCR4 (P61073 whole entry): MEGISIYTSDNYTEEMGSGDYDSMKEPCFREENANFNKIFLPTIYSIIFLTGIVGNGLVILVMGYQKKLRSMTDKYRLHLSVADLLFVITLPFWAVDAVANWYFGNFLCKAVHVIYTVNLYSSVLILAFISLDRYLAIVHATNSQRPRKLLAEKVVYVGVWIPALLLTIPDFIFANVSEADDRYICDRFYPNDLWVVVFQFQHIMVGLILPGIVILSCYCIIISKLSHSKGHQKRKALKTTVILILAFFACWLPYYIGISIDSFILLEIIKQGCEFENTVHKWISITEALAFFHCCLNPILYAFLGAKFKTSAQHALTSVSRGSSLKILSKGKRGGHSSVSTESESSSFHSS

## c1ccc(CNCc2ccc(CN3CCCNCCNCCCNCC3)cc2)nc1 [AMD3465]
CXCR4
  effect on chemoprotective effects of the stromal cell-leukemia interaction: prevent the chemoprotective effects of the stromal cell-leukemia interaction

## SDF-1/CXCL12: chemokine stromal-cell derived factor, ligand of CXCR4 (R&D Systems)
MSC niche
  cobblestone area formation / migration of hematopoietic progenitors underneath the MSC: cobblestone area formation
[1]
  MSC stromal layer and adherence of AML cells in MSC-coated scaffold: thick proliferation of the MSC stromal layer with multiple adherent AML cells present; also recorded: upregulates adhesion of AML cells to the stroma; also recorded: induces hyperproliferation of the mesenchymal stroma compartment

## c1cc(CN2CCCNCCNCCCNCC2)ccc1CN1CCCNCCNCCCNCC1 [AMD3100]
MSC niche
  cobblestone area formation / migration of hematopoietic progenitors underneath the MSC: MSC remain empty and hematopoietic progenitors do not migrate underneath the MSC; also recorded: the cytoplasm remained empty
[1]
  MSC stromal layer and adherence of AML cells in MSC-coated scaffold: the stromal lining is thin and disrupted at several points, leaving AML cells free floating in proximity; also recorded: interact with AML homing by stem cell niche disruption at the level of the stromal layer; also recorded: thin stromal lining that was disrupted at several points, leaving AML cells free floating in proximity; also recorded: the MSC stroma became ruffled and non-adherent and AML remained only loosely attached
